From patent US9200051B2, “Peptide compound” (TAKEDA PHARMACEUTICAL COMPANY LIMITED, priority 2013, dated 2015)
Square brackets hold non-standard residues; d marks the D form. Peptide text beside a SMILES is read from it. NMeY = CN[C@@H](Cc1ccc(O)cc1)C(=O)O; αMeF = C[C@](N)(Cc1ccccc1)C(=O)O; Aib = CC(C)(N)C(=O)O

Key:
Type in all cases: cell-based
human GIPR = target: T1, human GIPR (Homo sapiens, UniProt P48546); test: Agonist activity against human GIPR, CRE-luciferase reporter assay (rise in intracellular cAMP) in hGIPR/CRE-LUC/CHO-K1 cells
T1 construct: expressed in transfected cells; host or cells: CHO-K1 (CRE-LUC/CHO-K1), plasmid hGIPR/pMSRα-neo
T1 sequence (P48546 22-466): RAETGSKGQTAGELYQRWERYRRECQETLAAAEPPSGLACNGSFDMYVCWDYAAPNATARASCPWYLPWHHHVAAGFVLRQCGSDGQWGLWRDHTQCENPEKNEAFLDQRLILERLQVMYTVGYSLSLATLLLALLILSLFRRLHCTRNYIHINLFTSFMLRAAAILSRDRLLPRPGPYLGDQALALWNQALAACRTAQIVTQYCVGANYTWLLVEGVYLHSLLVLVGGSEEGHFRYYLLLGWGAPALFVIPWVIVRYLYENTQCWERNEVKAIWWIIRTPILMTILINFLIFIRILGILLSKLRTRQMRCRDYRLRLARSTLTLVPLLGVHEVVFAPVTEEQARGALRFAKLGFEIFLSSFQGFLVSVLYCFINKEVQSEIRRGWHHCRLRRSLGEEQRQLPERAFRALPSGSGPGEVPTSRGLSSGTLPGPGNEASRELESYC
Text: (§1) Evaluation of agonist activity against human GIPR, human GLP-1R and human glucagon R using rise in intracellular cAMP concentration as index
The human GIPR gene having a sequence identical to the sequence of GenBank Accession No. U39231 was cloned into pMSRα-neo vector to prepare hGIPR/pMSRα-neo.
(§2) The luciferase reporter gene having an upstream cAMP response sequence was introduced to CHO-K1 cells to construct CRE-LUC/CHO-K1 cells.
The plasmid hGIPR/pMSRα-neo obtained in (1) was introduced to the CRE-LUC/CHO-K1 cells obtained in (2) to obtain transformants. Next, a cell line induced to express luciferase, i.e., hGIPR/CRE-LUC/CHO-K1 cells, were selected from the obtained transformants by the addition of GIP.
(§3) The hGIPR/CRE-LUC/CHO-K1 cells were inoculated at a cell density of 25 μL/well (5×10^4 cells/well) to a 384-well white plate (Corning), and cultured overnight in Ham F12 medium containing 10% fetal bovine serum, 100 U/mL penicillin and 100 μg/mL streptomycin in a CO2 incubator of 37° C. A medium containing a test compound was added at a concentration of 5 μL/well to the cells, and the resultant cells were incubated for 4 hours in a CO2 incubator of 37° C. to give the final concentration of 1 μM. PicaGene LT7.5 (Toyo Ink Co., Ltd.) was added thereto at a concentration of 30 μL/well, and the mixture was shaken with light shielded. After 30 minutes, the luciferase activity was measured using a plate reader Envision (PerkinElmer). The luciferase activity in the presence of 10 nM GIP was defined as 100%, and the luciferase activity from the addition of DMSO instead of the test compound was defined as 0%. The GIPR agonist activity was calculated with a rise in intracellular cAMP concentration as an index.

human GLP-1R = target: T2, human GLP-1R (Homo sapiens, UniProt P43220); test: Agonist activity against human GLP-1R, CRE-luciferase reporter assay in hGLP-1R/CRE-luc/CHO-K1 cells
T2 construct: expressed in transfected cells; host or cells: CHO-K1, plasmids hGLP-1/pIRESneo3 and Cre-luc(Zeo)
Text: as §1
Four copies of the cAMP response sequence and the Zeocin resistance gene were introduced to pGL3(R2.2)-Basic Vector (Promega) to construct Cre-luc(Zeo) reporter plasmid.
The human GLP-1R gene having a sequence identical to the sequence of GenBank Accession No. NM_002062 was cloned into pIRESneo3 vector to prepare hGLP-1/pIRESneo3.
The Cre-luc(Zeo) obtained in (3) and the plasmid hGLP-1/pIRESneo3 obtained in (5) were introduced to CHO-K1 cells to obtain transformants. Next, a cell line induced to express luciferase, i.e., hGLP-1R/CRE-luc/CHO-K1 cells, were selected from the obtained transformants by the addition of GLP-1.
as §3
The GLP-1R agonist activity was assayed in the same way as above using the hGLP-1R/CRE-luc/CHO-K1 cells. The luciferase activity in the presence of 10 nM GLP-1 was defined as 100%, and the luciferase activity from the addition of DMSO instead of the test compound was defined as 0%. The GLP-1R agonist activity was calculated with a rise in intracellular cAMP concentration as an index.

human glucagon R = target: T3, human glucagon R (Homo sapiens, UniProt P47871); test: Agonist activity against human glucagon R, CRE-luciferase reporter assay in hGlucagonR/CRE-LUC/CHO-K1 cells
T3 construct: expressed in transfected cells; host or cells: CHO-K1 (CRE-LUC/CHO-K1), plasmid hGlucagonR/pMSRα-neo
Text: as §1, §2
The human glucagon R gene having a sequence identical to the sequence of GenBank Accession No. NM_000160 was cloned into pMSRα-neo vector to prepare hGlucagonR/pMSRα-neo.
The plasmid hGlucagonR/pMSRα-neo obtained in (7) was introduced to the CRE-LUC/CHO-K1 cells obtained in (2) to obtain transformants. Next, a cell line induced to express luciferase, i.e., hGlucagonR/CRE-LUC/CHO-K1 cells, were selected from the obtained transformants by the addition of glucagon.
as §3
The glucagon R agonist activity was assayed in the same way as above using the hGlucagonR/CRE-LUC/CHO-K1 cells. The luciferase activity in the presence of 10 nM glucagon was defined as 100%, and the luciferase activity from the addition of DMSO instead of the test compound was defined as 0%. The glucagon agonist activity was calculated with a rise in intracellular cAMP concentration as an index.

T2 sequence (P43220 24-463): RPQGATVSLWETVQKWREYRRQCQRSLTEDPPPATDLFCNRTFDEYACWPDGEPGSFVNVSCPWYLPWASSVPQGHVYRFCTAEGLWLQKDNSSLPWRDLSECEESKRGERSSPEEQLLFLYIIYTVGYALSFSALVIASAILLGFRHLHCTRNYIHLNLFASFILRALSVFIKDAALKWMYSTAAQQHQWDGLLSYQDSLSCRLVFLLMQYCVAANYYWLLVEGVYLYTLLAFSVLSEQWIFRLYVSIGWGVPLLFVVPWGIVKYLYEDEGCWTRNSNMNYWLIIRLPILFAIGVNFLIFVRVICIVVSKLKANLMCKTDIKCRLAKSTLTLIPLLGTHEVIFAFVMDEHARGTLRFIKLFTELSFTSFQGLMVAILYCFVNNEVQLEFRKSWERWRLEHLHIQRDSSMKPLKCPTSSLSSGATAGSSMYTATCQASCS
T3 sequence (P47871 26-477): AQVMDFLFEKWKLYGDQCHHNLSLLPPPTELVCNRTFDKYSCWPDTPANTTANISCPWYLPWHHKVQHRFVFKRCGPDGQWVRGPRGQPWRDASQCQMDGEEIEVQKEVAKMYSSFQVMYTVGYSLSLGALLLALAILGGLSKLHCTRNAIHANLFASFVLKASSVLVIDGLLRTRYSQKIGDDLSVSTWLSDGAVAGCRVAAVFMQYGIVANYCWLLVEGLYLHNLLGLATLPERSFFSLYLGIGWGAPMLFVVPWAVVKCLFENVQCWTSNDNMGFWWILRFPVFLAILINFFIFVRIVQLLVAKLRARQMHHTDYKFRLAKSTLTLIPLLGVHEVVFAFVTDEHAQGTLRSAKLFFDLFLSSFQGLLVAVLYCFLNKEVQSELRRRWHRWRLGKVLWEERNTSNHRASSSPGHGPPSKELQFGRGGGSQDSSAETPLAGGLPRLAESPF

Compound	EC50 (human GIPR) [nM]	EC50 (human GLP-1R) [nM]	EC50 (human glucagon R) [nM]
CC[C@H](C)[C@H](NC(=O)[C@H](C)NC(=O)[C@H](Cc1ccc(O)cc1)NC(=O)[C@H](CC(=O)O)NC(=O)[C@H](CO)NC(=O)[C@@H](NC(=O)[C@](C)(Cc1ccccc1)NC(=O)[C@@H](NC(=O)CNC(=O)[C@H](CCC(=O)O)NC(=O)C(C)(C)NC(=O)[C@@H](N)Cc1ccc(O)cc1)[C@@H](C)O)[C@@H](C)O)C(=O)NC(C)(C)C(=O)N[C@@H](CC(C)C)C(=O)N[C@@H](CC(=O)O)C(=O)N[C@@H](CCCCN)C(=O)N[C@@H](CCC(N)=O)C(=O)N[C@@H](C)C(=O)N[C@@H](CCC(N)=O)C(=O)N[C@@H](C)C(=O)N[C@@H](CCC(=O)O)C(=O)N[C@@H](Cc1ccccc1)C(=O)N[C@H](C(=O)N[C@@H](CCCCN)C(=O)N[C@@H](Cc1c[nH]c2ccccc12)C(=O)N[C@@H](CC(C)C)C(=O)N[C@@H](CC(C)C)C(=O)N[C@@H](CCCCN)C(=O)NCC(=O)NCC(=O)N1CCC[C@H]1C(=O)N[C@@H](CO)C(=O)N[C@@H](CO)C(=O)NCC(=O)N[C@@H](C)C(=O)N1CCC[C@H]1C(=O)N1CCC[C@H]1C(=O)N1CCC[C@H]1C(=O)N[C@@H](CO)C(=O)N[C@@H](CCCCN)C(N)=O)C(C)C [Example 1] (H-Y[Aib]EGT[αMeF]TSDYAI[Aib]LDKQAQAEFVKWLLKGGPSSGAPPPSK-NH2)	0.0081	0.012	> 1000
CC[C@H](C)[C@H](NC(=O)[C@H](C)NC(=O)[C@H](Cc1ccc(O)cc1)NC(=O)[C@H](CC(=O)O)NC(=O)[C@H](CO)NC(=O)[C@@H](NC(=O)[C@](C)(Cc1ccccc1)NC(=O)[C@@H](NC(=O)CNC(=O)[C@H](CCC(=O)O)NC(=O)C(C)(C)NC(=O)[C@@H](N)Cc1ccc(O)cc1)[C@@H](C)O)[C@@H](C)O)C(=O)NC(C)(C)C(=O)N[C@@H](CC(C)C)C(=O)N[C@@H](CC(=O)O)C(=O)N[C@@H](CCCCN)C(=O)N[C@@H](CCC(N)=O)C(=O)N[C@@H](C)C(=O)N[C@@H](CCC(N)=O)C(=O)N[C@@H](CO)C(=O)N[C@@H](CCC(=O)O)C(=O)N[C@@H](Cc1ccccc1)C(=O)N[C@H](C(=O)N[C@@H](CCCCN)C(=O)N[C@@H](Cc1c[nH]c2ccccc12)C(=O)N[C@@H](CC(C)C)C(=O)N[C@@H](CC(C)C)C(=O)N[C@@H](CCCCN)C(=O)NCC(=O)NCC(=O)N1CCC[C@H]1C(=O)N[C@@H](CO)C(=O)N[C@@H](CO)C(=O)NCC(=O)N[C@@H](C)C(=O)N1CCC[C@H]1C(=O)N1CCC[C@H]1C(=O)N1CCC[C@H]1C(=O)N[C@@H](CO)C(=O)N[C@@H](CCCCN)C(N)=O)C(C)C [Example 3] (H-Y[Aib]EGT[αMeF]TSDYAI[Aib]LDKQAQSEFVKWLLKGGPSSGAPPPSK-NH2)	0.0071	0.013	> 1000
CC[C@H](C)[C@H](NC(=O)C(C)(C)NC(=O)[C@H](Cc1ccc(O)cc1)NC(=O)[C@H](CC(=O)O)NC(=O)[C@H](CO)NC(=O)[C@@H](NC(=O)[C@](C)(Cc1ccccc1)NC(=O)[C@@H](NC(=O)CNC(=O)[C@H](CCC(=O)O)NC(=O)C(C)(C)NC(=O)[C@H](Cc1ccc(O)cc1)NC)[C@@H](C)O)[C@@H](C)O)C(=O)NC(C)(C)C(=O)N[C@@H](CC(C)C)C(=O)N[C@@H](CC(=O)O)C(=O)N[C@@H](CCCCN)C(=O)N[C@@H](CCC(N)=O)C(=O)N[C@@H](C)C(=O)N[C@@H](CCC(N)=O)C(=O)N[C@@H](C)C(=O)N[C@@H](CCC(=O)O)C(=O)N[C@@H](Cc1ccccc1)C(=O)N[C@H](C(=O)N[C@@H](CCCCN)C(=O)N[C@@H](Cc1c[nH]c2ccccc12)C(=O)N[C@@H](CC(C)C)C(=O)N[C@@H](CC(C)C)C(=O)N[C@@H](CCCCN)C(=O)NCC(=O)NCC(=O)N1CCC[C@H]1C(=O)N[C@@H](CO)C(=O)N[C@@H](CO)C(=O)NCC(=O)N[C@@H](C)C(=O)N1CCC[C@H]1C(=O)N1CCC[C@H]1C(=O)N1CCC[C@H]1C(=O)N[C@@H](CO)C(=O)N[C@@H](CCCCN)C(N)=O)C(C)C [Example 23] (H-[NMeY][Aib]EGT[αMeF]TSDY[Aib]I[Aib]LDKQAQAEFVKWLLKGGPSSGAPPPSK-NH2)	0.016	0.016	–
